From BindingDB's records for doi:10.7270/Q2KP80MW (The Scripps Research Institute Molecular Screening Center, 2011)

Target: T1, Peroxisome proliferator-activated receptor gamma (Homo sapiens, UniProt P37231)
T1 sequence (P37231 whole entry): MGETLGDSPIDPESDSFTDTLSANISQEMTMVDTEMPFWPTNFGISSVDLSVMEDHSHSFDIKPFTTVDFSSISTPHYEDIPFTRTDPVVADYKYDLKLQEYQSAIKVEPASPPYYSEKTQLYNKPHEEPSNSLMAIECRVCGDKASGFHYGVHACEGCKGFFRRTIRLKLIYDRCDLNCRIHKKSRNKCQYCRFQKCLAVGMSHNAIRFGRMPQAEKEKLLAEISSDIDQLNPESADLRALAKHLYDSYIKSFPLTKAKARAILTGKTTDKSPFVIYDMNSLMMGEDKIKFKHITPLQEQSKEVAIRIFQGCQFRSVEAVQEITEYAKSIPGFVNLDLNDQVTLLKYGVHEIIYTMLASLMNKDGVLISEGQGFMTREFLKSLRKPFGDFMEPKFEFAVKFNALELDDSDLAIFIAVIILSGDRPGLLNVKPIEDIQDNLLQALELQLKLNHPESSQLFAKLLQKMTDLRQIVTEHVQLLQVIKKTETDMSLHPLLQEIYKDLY
Test: competitive ligand displacement at PPARg – biochemical, fluorescence polarization, PolarScreen, PPARg partial agonist project, dose response (AID 504453)

Row | IC50 [µM] | Structure (SMILES)
1 | 22 | Cc1ccc2nc(N3C(=O)C(=O)C(C(=O)c4ccc(C)o4)C3c3ccco3)sc2c1 (centres undefined)
2 | 5 | COc1ccc2nc(N3C(=O)C(=O)C(C(=O)c4ccco4)C3c3ccc(C)o3)sc2c1 (centres undefined)
3 | 3 | CCOc1ccc2nc(N3C(=O)C(=O)C(C(=O)c4ccco4)C3c3ccco3)sc2c1 (centres undefined) [1-(6-ethoxy-1,3-benzothiazol-2-yl)-2-(2-furanyl)-3-[2-furanyl(oxo)methyl]-4-hydroxy-2H-pyrrol-5-one]
4 | 30 | Cc1ccc2nc(N3C(=O)C(=O)C(C(=O)c4ccco4)C3c3ccc(C)o3)sc2c1 (centres undefined) [3-[2-furanyl(oxo)methyl]-4-hydroxy-1-(6-methyl-1,3-benzothiazol-2-yl)-2-(5-methyl-2-furanyl)-2H-pyrrol-5-one;oxalic acid]
